PMC10424179, “Disrupting Kaposi’s Sarcoma-Associated Herpesvirus (KSHV) Latent Replication with a Small Molecule Inhibitor” (Journal of Medicinal Chemistry, 2023)
Values after ≈ are worked out from the molar mass of the structure shown.

Columns and labels:
Chromatographic LogD7.4 = type: physicochemical; details: reversed-phase HPLC, NUCLEODUR C18 Pyramid column; pH 7.4, HPLC-MS based; read-out: Chrom. LogD7.4
Protocol: (§1) The next step was an in vitro ADMET profiling of the best seven compounds so far: 9, 11, 14, 19, 20, 21, and 27. The compounds were tested for their kinetic solubility (1% DMSO in PBS, pH 7.4), lipophilicity (chromatographic Log D7.4 value), cellular permeability (using Caco-2 cells), and metabolic stability (using mouse and human liver S9 fractions) (see Table 3). […]
LogD7.4 was analyzed using an HPLC−MS based method. The retention time of 12 compounds with known LogD7.4 was determined and plotted toward their LogD7.4. Linear regression was used to determine the LogD7.4 of unknown compounds. Analysis was performed using a Dionex Ultimate 3000 HPLC system coupled to a TSQ Quantum Access MAX (Thermo Fisher, Dreieich, Germany) with the following conditions: EC150/2 NUCLEODUR C18 Pyramid column, 5 μM (Macherey Nagel, Düren, Germany); eluent A: 50 mM NH4OAc pH 7.4, eluent B: acetonitrile, and flow: 0.6 mL/min. The gradient was set to 0−100% B from 0 to 2.5 min, […]
are means of two replicates. […]

[1] = Metabolic stability in mouse liver S9 fraction; type: in vitro ADME; details: pooled liver S9 fraction, mouse liver S9, 1 μM compound; for microsomal CLint at 1 µM: read-out: MetStab Mouse Liver S9 Clint; for half-life at 1 µM: read-out: MetStab Mouse Liver S9 t1/2
Protocol: as §1
(§2) 1.7 Metabolic Stability in Liver S9 Fractions
(§3) For the evaluation of combined phase I and phase II metabolic stability, the compound (1 μM) was incubated with 1 mg/mL pooled mouse liver S9 fraction (Xenotech, Kansas City, USA) or human liver S9 fraction (Corning, USA), 2 mM NADPH, 1 mM UDPGA, 10 mM MgCl 2, 5 mM GSH and 0.1 mM PAPS at 37 °C for 240 min. The metabolic stability of testosterone, verapamil and ketoconazole were determined in parallel to confirm the enzymatic activity of mouse S9 fractions, for human S9 testosterone, diclofenac and propranolol were used. The incubation was stopped after defined time points by precipitation of aliquots of S9 enzymes with 2 volumes of cold acetonitrile containing internal standard (150 nM diphenhydramine). Samples were stored on ice until the end of the incubation and precipitated protein was removed by centrifugation (15 min, 4 °C, 4,000 g). Concentration of the remaining test compound at the different time points was analyzed by HPLC-MS/MS (TSQ Quantum Access MAX, Thermo Fisher, Dreieich, Germany) and used to determine half -life (t1/2). Values are means of three

Caco-2 cell permeability = type: in vitro ADME; details: human, pH 7.4, Caco-2 monolayer, apical to basolateral
Protocol: (§4) The next step was an in vitro ADMET profiling of the best seven compounds so far: 9, 11, 14, 19, 20, 21, and 27. The compounds were tested for their kinetic solubility (1% DMSO in PBS, pH 7.4), lipophilicity (chromatographic Log D7.4 value), cellular permeability (using Caco-2 cells), and metabolic stability (using mouse and human liver S9 fractions) (see Table 3).
MTT Assay: Viability of HEK293 cells ~48 hours after treatment […]
Fig S4: MTT assay for compounds 11, 14, 19, 20 and 21 using HEK293 cells. Values are means of […]
Permeability of the compounds was assessed using Caco2 monolayers grown on Transwell® (3460 Costar, Corning). In brief, cells were seeded 60.000 cells/well in 12-well Transwell plates in DMEM medium supplemented with 10% FCS and 1% NEAA. Cells were grown for 7 to 9 days with medium replacement every other day until they reached a tight monolayer. Tightness was defined as transepithelial resistance (TEER) values >300 Ω/cm² (measured using an EVOM Volt-Ohmmeter, World Precision Instruments). At the day of permeability as say, the compound stock solutions in DMSO were diluted to 10µM in Krebs -Ringer-buffer (KRB, pH 7.4). Cells treated with KRB only served as control. Monolayer was washed two times with prewarmed KRB and incubated with 500 µl sample on the apical compartment. Samples from the basolateral side were drawn at t = 0, 15, 30, 60, 120, 180 and 300 min and replaced with fresh buffer. The plates were incubated for 5 h in a cell culture incubator with lateral shaking (200 rpm). TEER values were measured again at the end of the permeability test. Compound concentration was determined with HPLC-ESI-MS/MS in SRM mode and calculated for the cumulative transport. Values are means of three replicates.

[2] = molecular target: T1, oligomerization-deficient mutant of a LANA C-terminal protein fragment (aa 1008–1146) (Human herpesvirus 8 (Kaposi's sarcoma-associated herpesvirus), UniProt Q76SB0); experiment: Microscale thermophoresis (MST) binding assay; design: species or system Kaposi's sarcoma-associated herpesvirus (KSHV); details: read-out: KD value (MST); LANA aa 1008–1146 mutant; means of at least three replicates
T1 sequence (Q76SB0 1008-1146): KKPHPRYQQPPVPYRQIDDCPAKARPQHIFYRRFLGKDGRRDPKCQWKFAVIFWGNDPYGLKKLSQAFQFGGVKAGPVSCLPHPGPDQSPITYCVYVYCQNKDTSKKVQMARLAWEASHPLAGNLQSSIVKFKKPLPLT
Text: (§5) In these assays, an oligomerization-deficient mutant of a LANA C-terminal protein fragment (aa 1008–1146) and an oligonucleotide representing LANA-binding site (LBS) 1 were used, which are convenient to use and handle for the described biophysical methods, while maintaining the essential DNA-binding interface.[25]
Equation y = A2 + (A1-A2)/(1 + (x/x0)^p)
1.3 Microscale Thermophoresis (MST) Assay
Microscale Thermophoresis Assay was done as mentioned in a previous publication. 2

[3] = molecular target: LANA–DNA interaction (oligomerization-deficient LANA DBD aa 1008–1146 mutant / LBS1) (Human herpesvirus 8 (Kaposi's sarcoma-associated herpesvirus), UniProt Q76SB0); experiment: Electrophoretic mobility shift assay (EMSA), LANA DBD mutant with LBS1 oligonucleotide; type: biochemical, Kaposi's sarcoma-associated herpesvirus (KSHV); details: compound at 250 μM; LBS1 oligonucleotide; LANA aa 1008–1146 mutant
Protocol: as §5
Equation y = A2 + (A1-A2)/(1 + (x/x0)^p) […]
1.4 Electrophoretic Mobility Shift Assay (EMSA)
The EMSA was carried out with slight modific ations as described previously 2 based on the assay in Hellert et al. (2013). 3 His-tagged oligomerization-deficient LANA DBD (aa1008-1146) mutant protein or LANA DBD (aa934-1162) wild type protein (200 nM final) was incubated with a 5´-Dy682-labeled double stranded DNA probe (IBA Lifesciences) (20 nM final) for 30 minutes at RT in the dark. The reaction buffer consisted of 30 mM Tris HCl pH 7.5, 50 mM KCl, 10 mM MgCl2, 1 mM DTT, 1 mM EDTA, 10% glycerol, 0.25% Tween20, 0.5 mg/mL BSA and 0.05 mg/mL poly(dI-dC). […]
dark. 10 µL of the reaction was run on a pre -run native 5% acrylamide gel for 45 minutes at 100V with tris-borate-EDTA buffer. Images of the gels were acquired and analysed with the Odyssey (Licor) using the Image Studio software.
Fig S2: Gels of EMSA experiments at 250 μM for all compounds (A) and dose-dependent curves for compound 20 using LANA DBD mutant (B) and LANA wildtype (C) as well as LBS1. Values are means […]
Gleichung y = A2 + (A1-A2)/(1 + (x/x0)^p) […]

Kinetic solubility = type: physicochemical; details: PBS with 1% DMSO; 1% DMSO in PBS, pH 7.4
Protocol: as §4
The desired compounds were sequentially diluted in DMSO in a 96-well plate. 1.5 µL of each well were transferred into another 96-well plate and mixed with 148.5 µL of PBS. Plates were shaken for 5 min at 600 rpm at room temperature (r.t.), and the absorbance at 620 nm was measured. Absorbance values were normalized by blank subtraction and plotted using GraphPad Prism 8.4.2 (GraphPad Software, San Diego, CA, USA). Solubility (S) was determined based on the First X value of AUC function using a threshold of 0.005. […]

[4] = Metabolic stability in human liver S9 fraction; type: in vitro ADME; details: human liver S9, 1 μM compound; for microsomal CLint at 1 µM: read-out: MetStab Human Liver S9 Clint; for half-life at 1 µM: read-out: MetStab Human Liver S9 t1/2
Protocol: as §1, §2, §3

LANA = molecular target: LANA; design: method as in PMID 30888817; details: cited from earlier work

Row | SMILES | chromatographic logD (Chromatographic LogD7.4) | microsomal CLint at 1 µM [1] | half-life at 1 µM [1] | Papp A→B at 5 h, 10 µM (Caco-2 cell permeability) | Kd [2] | Inhibition (EMSA, LBS1) @250 μM [3] | solubility kinetic at 5 min (Kinetic solubility) | microsomal CLint at 1 µM [4] | half-life at 1 µM [4] | Kd (LANA)
1 | COc1cncc(-c2cc(C)c(-n3cc(-c4ccc(C(=O)O)cc4)nn3)cn2)c1 [Compound 9] | -0.36 | < 5.8 µL/min/mg | > 2 h | 2 ± 0.5 ×10⁻⁶ cm/s | 11 ± 1.9 µM | 97% | 139 ± 18 µM (≈ 53.8 µg/mL) | < 5.8 µL/min/mg | > 2 h | –
2 | Cc1cc(-c2ccccc2O)ncc1-n1cc(-c2ccc(C(=O)O)cc2)nn1 [Compound 21] | 0.62 | < 5.8 µL/min/mg | > 2 h | 8.8 ± 1.1 ×10⁻⁶ cm/s | 18.8 ± 2.2 µM | 94% | 137 ± 20 µM (≈ 51 µg/mL) | < 5.8 µL/min/mg | > 2 h | –
3 | Cc1cc(-c2ccc(C(=O)O)cc2)ncc1-n1cc(-c2ccc(C(=O)O)cc2)nn1 [Compound 27] | -1.92 | < 5.8 µL/min/mg | > 2 h | 0.5 ± 0.2 ×10⁻⁶ cm/s | 11.4 ± 3.6 µM | 98% | > 200 µM | < 5.8 µL/min/mg | > 2 h | –
4 | COc1ncc(C)cc1-c1cc(C)c(-n2cc(-c3ccc(C(=O)O)cc3)nn2)cn1 [Compound 11] | 0.42 | < 5.8 µL/min/mg | > 2 h | 9.6 ± 1.4 ×10⁻⁶ cm/s | 18.8 ± 2.1 µM | 96% | > 200 µM | < 5.8 µL/min/mg | > 2 h | –
5 | COc1ccc(-c2cc(C)c(-n3cc(-c4ccc(C(=O)O)cc4)nn3)cn2)cc1 [Compound 19] | 0.46 | < 5.8 µL/min/mg | > 2 h | 16.5 ± 4.7 ×10⁻⁶ cm/s | 5.4 ± 1.8 µM | 69% | > 200 µM | < 5.8 µL/min/mg | > 2 h | –
6 | O=C(O)c1ccc(-c2cn(-c3cccnc3)nn2)cc1 [hit I] | – | – | – | – | – | – | – | – | – | 23 µM
